The test system of data set [1] is C8161.C19 cells. The experiment in a line: cytotoxicity of pharmacological agents alone or combined (CellTiter 96), 48 hours. In kind it is cell-based. The note with it: for cell viability, single agents: 0.15 μM MK1775, 0.31 to 2.5 μM GDC0068, 1.25 to 10 μM AZD5363, FIG. 3E, 3G. As for the experimental part: (§1) Cytotoxicity of these agents alone or in combination in melanoma cells was measured by plating 2.5 to 5×10^3 cells into 96-well plates followed by growth for 24 to 48 hours in a humidified 37° C. cell culture incubator. […] Control cells were treated with vehicle (DMSO) alone. Cytotoxicity was measured using the CellTiter 96 Aqueous Non-Radioactive Cell Proliferation Assay (Promega). The combined effects of MK1775 and GDC0068 were quantified using CalcuSyn software.

Data set [2] relates to UACC 903 human melanoma tumors. The data set is described as follows: UACC 903 melanoma xenograft, oral drug treatment. Conditions: MK1775 50 mg/kg, AZD5363 150 mg/kg, oral daily for 18 days; vs vehicle. In kind it is in vivo, athymic-Foxn1^nu nude mice. As for the experimental part:
Tumor kinetics studies were undertaken in athymic-Foxn1^nu nude mice (Harlan Laboratories, Indianapolis, IN, USA). In genetic knockdown models, siRNA targeting AKT3 and WEE1 alone or in combination was nucleofected into 1×10^6 UACC 903 or 1205 Lu cells as described above. Cells transfected with scrambled siRNA were used as a control. After plating and allowing the cells to recover for 48 hours, 1×10^6 cells were aliquoted in 0.2 ml of 10% FBS-DMEM and then injected subcutaneously above both the left and right rib cages of 4-6 week old female mice (3-4 mice/group). Dimensions of developing tumors were measured on alternate days, using calipers to estimate size by multiplying length, width and depth in mm^3. For pharmacological synergy studies, 1×10^6 UACC 903 cells were injected subcutaneously above both the left and right rib cages of 4-6 week old female mice. […] Drugs were prepared in 0.5% methylcellulose, 0.5% Tween 80, 5% DMSO and 200 uL administered per oral treatment.
At the end of the study, blood samples were collected from each mouse, serum was separated and levels of various toxicity markers were analyzed. All of the measured biomarkers in samples collected from mice were within the normal range which excludes any toxicity caused by these drugs. […]

Data set [3] is described as follows: serum analysis of toxicity markers at end of study. Type of data set: in vivo, mice. The note with it: for CREA / BUN: kidney; for CREA: reference levels 0.1-0.3; for BUN: reference levels 18-33.7; for TBIL / ALB / SGPT (ALT) / ALKP: liver function; for TBIL: reference levels 0.1-0.9; for ALB: reference levels 2.5-4.8; for SGPT (ALT): reference levels 33-132, UACC 903 xenograft mice, oral daily; for ALKP: reference levels 62-209; for GLOB: no reference levels printed; for TP / CHOL / GLU: others; for TP: reference levels 3.6-6.6; for CHOL: reference levels 92-157; for GLU: reference levels 198-247; for AMYL: pancreas, reference levels 1691-3615. Here is the method: At the end of the study, blood samples were collected from each mouse, serum was separated and levels of various toxicity markers were analyzed. All of the measured biomarkers in samples collected from mice were within the normal range which excludes any toxicity caused by these drugs. Furthermore, visceral organs such as, heart, lungs, liver, intestine, spleen and kidney from each mouse were also collected, fixed in formalin and embedded in paraffin to assess any toxicity associated abnormality in cell morphology and tissue structure following hematoxylin and eosin staining.

For data set [4], the system named is 1205 Lu melanoma xenografts. The experiment in a line: 1205 Lu melanoma xenograft, oral drug treatment. In kind it is in vivo, Athymic-Foxnlnu nude mice. Conditions: for reduced growth of 1205 Lu xenograft / tumor development: AZD5363 150 mg/kg, MK1775 50 mg/kg, oral daily for 18 days, vs control, FIG. 4C; for reduced growth of 1205 Lu xenograft tumors: b.i.d.: AZD5363 130 mg/kg 4 days on/3 off, MK1775 30 mg/kg 3 days on/4 off, consecutive dosing in combination, 18 days, FIG. 4E. As for the experimental part: 1205 Lu melanoma xenograft tumors were established by subcutaneous injection of 1×10^6 1205 Lu cells injected above both left and right rib cages of 4-6 week-old female Athymic-Foxnlnu nude mice (Harlan Sprague Dawley). Six days later, when a fully vascularized tumor had formed, mice were randomly divided into treatment groups described below. Body weight in grams and dimensions of developing tumors in mm^3 were measured on alternate days (1-6). Drugs were prepared in 0.5% methylcellulose, 0.5% Tween 80, 5% DMSO and […] administered per oral treatment.
Group 1 (vehicle control, 0.5% methylcellulose, 0.5% Tween 80, 5% DMSO) daily for 18 days;
Group 3 (MK1775, 50 mg/kg) daily for 18 days; and
Group 5 (vehicle control, 0.5% methylcellulose, 0.5% Tween 80, 5% DMSO) b.i.d. (twice a day) for 18 days;
Group 7, (MK1775, 30 mg/kg b.i.d. for 3 days on, 4 days off) for 18 days; and […]

The test system of data set [5] is UACC 903 cells. The data set is described as follows: RNA sequencing, differentially expressed genes. In kind it is cell-based, human. The note with it: 24 hours after treatment; intensity difference test p<0.05. The source says:
Twenty-four hours following treatment with tested agents, total RNA was extracted from UACC 903 cells using mirVana RNA isolation kit (Life Technologies, Grand Island, NY). Next, using SureSelect Strand Specific RNA Library Preparation kit (Agilent) cDNA libraries were constructed, polyA RNA was purified with oligo (dT) beads and then extracted RNA was processed through fragmentation, reverse transcription, end repair, 3′-end adenylation, adaptor ligation, PCR amplification and SPRI bead purification (Beckman Coulter). For multiplexed high-throughput sequencing, the unique barcode sequences were incorporated. Libraries were then denatured using the Illumina protocol, diluted with pre-chilled hybridization buffer and loaded onto TruSeq SR v3 flow cells on an Illumina HiSeq 2500 (50 cycles, single-read). Sequencing reads were extracted by using Illumina CASAVA pipeline Version 1.8 and aligned to the human reference genome (hg38) using Tophat (version 2.0.9) as described in detail in Trapnell et al, Bioinformatics 2009; 25(9): 1105-11. SeqMonk (version 0.32.0) was used for the identification of differentially expressed genes. Following RNA-Seq quantitation, 75% percentile normalization was performed and significant alterations were determined via intensity difference test with Benjamini and Hochberg multiple testing correction (p-value <0.05). […]

Data set [6] deals with UACC 903 melanoma cells. The data set is described as follows: Western blotting of treated cells. In kind it is cell-based, human. Conditions: 1, 3 or 10 μM AZD5363, FIG. 5C; for phosphorylated CDK1 levels: 1 μM MK1775. Here is the method:
Cell lysates were collected 48-96 hours after siRNA transfection or drug treatment by washing plates with PBS followed by addition of RIPA lysis buffer containing Halt Protease & Phosphatase Inhibitor Cocktail (Thermo Scientific, Rockford, IL, USA). Lysates were centrifuged (10,000×g) for 10 minutes at 4° C. to remove cell debris. Protein concentration was measured using the bicinchoninic acid assay kit (Thermo Scientific, Rockford, IL, USA). 25 μg of respective lysates were loaded onto 4-12% Bis-Tris NuPAGE gels (Life Technologies, Grand Island, NY) and run in an XCell SureLock Mini-Cell gel apparatus (Life Technologies, Grand Island, NY), transferred to polyvinylidene difluoride membranes (PVDF) (Pall Corporation, Port Washington, NY), probed with respective primary antibody followed by horseradish peroxidase-conjugated secondary antibody, and exposed using ECL Western Blotting Substrate (Thermo Scientific, Rockford, IL, USA) or Supersignal West Femto Chemiluminescent Substrate (Thermo Scientific, Rockford, IL, USA). Primary antibodies used: p21 (sc-756), p27 (sc-528), PLK1 (sc-17783), p53 (sc-6243) and ERK2 (sc-1647) from Santa Cruz Biotechnology (Dallas, TX), pAKT (S473 in AKT1, 5474 in AKT2 and 5472 in AKT3, #9271), AKT3 (#3788), Total AKT (#4685), pWEE1 (#4910), WEE1 (#4936), p-CDC2 (Y15) (#9111), p-CDC2 ([…]) (#9114), CDC2 (#9112) CHK1 (#2345), pCHK1 (#2344), pRB ([…]/811) (#9308), pRB ([…]) (#9301), pRB ([…]) (#9307), RB (#9309), FOXM1 (#5436), p-Histone H2AX (S139) (#2577) and Cleaved PARP (#9541) from Cell Signaling (Danvers, MA). Secondary antibodies goat anti-rabbit IgG-HRP (sc-2004) and goat anti-mouse IgG-HRP (sc-2005) were purchased from Santa Cruz Biotechnology, Dallas, TX.

Data set [7] has as its system UACC 903 cells. The data set is described as follows: cytotoxicity of pharmacological agents alone or combined (CellTiter 96), 48 hours. Type of data set: cell-based. Conditions: Homo sapiens, UACC-903, read-out: reduced cell viability. As for the experimental part:
as §1

The values that follow come from US20240082252A1, “COMPOSITIONS AND METHODS RELATING TO CANCER” (The Penn State Research Foundation, priority 2015, published 2024).

Regarding `NC1(C(=O)N[C@@H](CCO)c2ccc(Cl)cc2)CCN(c2ncnc3[nH]ccc23)CC1` [AZD5363], the “cell viability, single agents” value in data set [1] is “reduced cell viability”. Besides, in data set [2], the “decrease in tumor size / tumor development” value is 36%. In data set [3], the CREA was 0.1 ± 0^ mg/dL, the BUN is 25.8 ± 2.2 mg/dL, the TBIL came to 0.5 ± 0.1 mg/dL and the ALB was found to be 2.5 g/dL. Also, in data set [3], the “SGPT (ALT)” value was found to be 41.3 ± 7.4 u/L, the ALKP was found to be 86.3 ± 7.5 u/L, the GLOB amounted to 2.6 ± 0.1 g/dL and the TP is 5.1 ± 0.1 g/dL. In data set [3], the CHOL stood at 113.5 ± 7.6 mg/dL, the GLU stood at 214 ± 30.6 mg/dL and the AMYL is on record as 1891 ± 129.7 U/L. In data set [4], the “reduced growth of 1205 Lu xenograft / tumor development” value is reported as around 50% and the “reduced growth of 1205 Lu xenograft tumors” value was around 30%. Further, the “number of significantly deregulated genes” value in data set [5] turned out to be 64 genes. In addition, in data set [6], the “phosphorylated CDK1 levels” value is on record as “reduced the phosphorylation of CDK1 in a dose-dependent manner” and the “phosphorylated PRAS40 levels” value is “dose-dependently decreased phosphorylated PRAS40 levels”.

In the case of `CC(C)NC[C@@H](C(=O)N1CCN(c2ncnc3c2[C@H](C)C[C@H]3O)CC1)c1ccc(Cl)cc1` [GDC0068, ipatasertib], the “cell viability, single agents” value in data set [1] is listed as “reduced cell viability”.

Turning to `C=CCn1c(=O)c2cnc(Nc3ccc(N4CCN(C)CC4)cc3)nc2n1-c1cccc(C(C)(C)O)n1` [MK1775, 2-allyl-1-(6-(2-hydroxypropan-2-yl)pyridin-2-yl)-6-((4-(4-methylpiperazin-1-yl)phenyl)amino)-1H-pyrazolo[3,4-d]pyrimidin-3(2H)-one], the “cell viability, single agents” value in data set [1] is reported as “reduced cell viability”. In addition, the relative single-agent activity entry in data set [1] (C8161.C19 cell line) was “significantly more effective”. The cytotoxicity at 0.63 µM in data set [7] was in the range of 35 to 40%. In data set [2], the “decrease in tumor size / tumor development” value is recorded as “ineffective”. In data set [3], this molecule came in with a CREA of 0.1 ± 0 mg/dL, a BUN of 25.3 ± 1.9 mg/dL, a TBIL of 0.6 ± 0 mg/dL and an ALB of 0.0026 ± 0.0001 g/dL. Further, in data set [3], the “SGPT (ALT)” value is recorded as 55 ± 10.1 u/L, the ALKP is reported as 75 ± 5.6 u/L, the GLOB is 2.6 ± 0 g/dL and the TP turned out to be 5.2 ± 0.1 g/dL. Further, in data set [3], the CHOL was 142.5 ± 4.6 mg/dL, the GLU is 237.5 ± 31.4 mg/dL and the AMYL is listed as 2251.8 ± 50.2 U/L. Besides, in data set [4], the “reduced growth of 1205 Lu xenograft / tumor development” value is reported as around 50% and the “reduced growth of 1205 Lu xenograft tumors” value is given as around 30%. In data set [5], the “number of significantly deregulated genes” value is listed as 94 genes. The “phosphorylated CDK1 levels” value in data set [6] is reported as “decreased phosphorylated CDK1 levels”.
